Measured values: patent publication US4582822A, “Antibiotic A80190, pharmaceutical compositions containing same and method of use” (Eli Lilly and Company, priority 1984, dated 1986)
Where a SMILES comes first, the peptide text is derived from it. Bridges are numbered along the chain shown (N, C = ends). [ ]: non-standard residue; d: D form. The star is where a group is joined. Ileψ(thiazoline)Cys = CC[C@H](C)[C@H](N)C1=N[C@H](C(=O)*)CS1; dOrn = NCCC[C@@H](N)C(=O)O

Columns and labels:
A. macra = experiment: Resistance to antibiotics, sensitivity discs on seeded agar; type: cell-based, Actinomadura macra
Procedure: (§1) Resistance to antibiotics was measured by padding antibiotic sensitivity discs onto the surface of seeded ISP No. 2 agar plates.
(§2) Table III lists the resistance of the strain to various antibiotics at the concentrations indicated and compares it to that of A. macra.

NRRL 15878 = experiment: as above; type: cell-based, Actinomadura oligospora
Procedure: as §1, §2

## CC[C@H](C)[C@H](N)C1=N[C@H](C(=O)N[C@@H](CC(C)C)C(=O)N[C@H](CCC(=O)O)C(=O)N[C@H](C(=O)N[C@H]2CCCCNC(=O)[C@H](CC(N)=O)NC(=O)[C@@H](CC(=O)O)NC(=O)[C@H](Cc3cnc[nH]3)NC(=O)[C@@H](Cc3ccccc3)NC(=O)[C@H]([C@@H](C)CC)NC(=O)[C@@H](CCCN)NC2=O)[C@@H](C)CC)CS1 [Bacitracin] ({Ileψ(thiazoline)Cys}-L[dE]IK[dOrn]I[dF]H[dD]N; lactam 4-C)
A. macra; 10 units
  Resistance to Antibiotics: -
NRRL 15878; 10 units
  Resistance to Antibiotics: +

## CC(=O)OCC1=C(C(=O)O)N2C(=O)[C@@H](NC(=O)Cc3cccs3)[C@H]2SC1 [Cephalothin]
A. macra; 30 μg
  Resistance to Antibiotics: +

## CC1(C)S[C@@H]2[C@H](NC(=O)Cc3ccccc3)C(=O)N2[C@H]1C(=O)O [Pencillin G]
A. macra; 10 units
  Resistance to Antibiotics: +
NRRL 15878; 10 units
  Resistance to Antibiotics: +

## CO[C@H]1/C=C/O[C@@]2(C)Oc3c(C)c(O)c4c(O)c(c(/C=N/N5CCN(C)CC5)c(O)c4c3C2=O)NC(=O)/C(C)=C\C=C\[C@H](C)[C@H](O)[C@@H](C)[C@@H](O)[C@@H](C)[C@H](OC(C)=O)[C@@H]1C [Rifampin]
A. macra; 5 μg
  Resistance to Antibiotics: +

## CN[C@@H]1[C@H](O[C@H]2[C@H](O[C@H]3[C@H](O)[C@@H](O)[C@H](N=C(N)N)[C@@H](O)[C@@H]3N=C(N)N)O[C@@H](C)[C@]2(O)C=O)O[C@@H](CO)[C@H](O)[C@H]1O [Streptocmycin]
A. macra; 10 μg
  Resistance to Antibiotics: +
NRRL 15878; 10 μg
  Resistance to Antibiotics: -

## CN[C@H](CC(C)C)C(=O)N[C@H]1C(=O)N[C@@H](CC(N)=O)C(=O)N[C@H]2C(=O)N[C@H]3C(=O)N[C@H](C(=O)N[C@H](C(=O)O)c4cc(O)cc(O)c4-c4cc3ccc4O)[C@H](O)c3ccc(c(Cl)c3)Oc3cc2cc(c3O[C@@H]2O[C@H](CO)[C@@H](O)[C@H](O)[C@H]2O[C@H]2C[C@](C)(N)[C@H](O)[C@H](C)O2)Oc2ccc(cc2Cl)[C@H]1O [Vancomycin]
A. macra; 30 μg
  Resistance to Antibiotics: -
NRRL 15878; 30 μg
  Resistance to Antibiotics: -

## Gentamicin
A. macra; 10 μg
  Resistance to Antibiotics: -
NRRL 15878; 10 μg
  Resistance to Antibiotics: -

## Tetracycline
A. macra; 30 μg
  Resistance to Antibiotics: -
NRRL 15878; 30 μg
  Resistance to Antibiotics: -
